Assay type in all cases: cell-based
The subject of one assay is Streptococcus mutans. The assay is described as follows: MIC by two-fold broth dilution, S. mutans. The method, then: (§1) In order to identify the antibacterial chemical entities present in the EtOAc fraction 3 and 4 of O.biennis roots, the fractions are further run on silica gel column chromatography again eluting with varying proportions of chloroform and MeOH. Aliquots of eluate are run on TLC to check for the desired purity of the compound. The pure compounds thus obtained are analyzed for their antibacterial properties by two-fold broth dilution method to determine the minimal inhibitory concentration (MIC). […] The compounds CIM791 and 790 are identified as 3,5-dihydroxy-4-pent-4′-enoyl-1′-oxymethylbenzoic acid (Oenostacin) and gallic acid, respectively, using NMR spectral data.
(In broth dilution the organism is exposed to a series of concentrations in liquid medium.)

Another assay deals with Pseudomonas aeruginosa. The assay is described as follows: MIC by two-fold broth dilution, P. aeruginosa. Particulars: Table 5, read-out: Minimal inhibitory concentration (MIC) P. aeruginosa. The method, then: as §1
The subject of assay [1] is Staphylococcus epidermidis. Put plainly: MIC by two-fold broth dilution, S. epidermidis. The arrangement: Minimal inhibitory concentration (MIC) S. epidermidis: unit not given here. The method, then:
CIM 791 is tested for its minimal inhibitory concentration, which is a measure of the growth inhibitory potential of the compound and determined against S. epidermidis by two-fold broth dilution technique.
as §1

≈ marks a conversion by molar mass, not a printed value. Read-outs that look alike come from different tables or passages of the source.

Consider `O=C(O)c1cc(O)c(O)c(O)c1` [Gallic acid, gallic acid], for which the figures for the MIC in the assay with Streptococcus mutans (read-out: MIC against Streptococcus mutans) and with Pseudomonas aeruginosa were 625 µg/mL (≈ 3.67 mM) and 1250 µg/mL (≈ 7.35 mM), respectively.

For `COC(=O)CC/C=C/c1c(O)cc(C(=O)O)cc1O` [Oenostacin, 3,5-dihydroxy-4-pent-4′-enoyl-1′-oxymethylbenzoic acid], the “activity against Staphylococcus epidermidis (in words)” value in assay [1] was “strong activity”. Besides, the MIC in assay [1] (Staphylococcus epidermidis, read-out: MIC against Staphylococcus epidermidis) stood at 31.5 µg/mL (≈ 0.118 mM); with Streptococcus mutans (Table 5, read-out: Minimal inhibitory concentration (MIC) S. mutans) it was 1250 µg/mL (≈ 4.69 mM). The “Minimal inhibitory concentration (MIC) S. epidermidis” value in assay [1] (Table 5) is given as 31.5.
